Key:
Assay in all cases: relative viability (nuclei count vs DMSO), 5 days (fraction); higher = more cells survive
Trametinib + Olaparib = compound: CC(=O)Nc1cccc(-n2c(=O)n(C3CC3)c(=O)c3c(Nc4ccc(I)cc4F)n(C)c(=O)c(C)c32)c1 [Trametinib] + O=C(c1cc(Cc2n[nH]c(=O)c3ccccc23)ccc1F)N1CCN(C(=O)C2CC2)CC1 [Olaparib] (partner 8 µM)
How it was run: (§1)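 Relative viability divides the nuclei count in treated wells by that in vehicle wells. Lung cancer cell lines were seeded in 1536-well plates, dosed by pin tool the next day, and fixed and stained after 5 days in one step with final 0.05% Triton X-100, 1% formaldehyde and 1 ug/ml Hoechst. Dosing was a single drug or a fixed anchor-drug dose plus five library-drug doses (not always all listed) in √10 steps, and values are medians of duplicate plates imaged at 4×.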

[1] = compound: CN1C=C(C2=CC=CC=C21)/C=C\3/C4=C(C=CC=N4)NC3=O + Cc1nc(Nc2ncc(C(=O)Nc3c(C)cccc3Cl)s2)cc(N2CCN(CCO)CC2)n1 [Dasatinib] (partner 0.075 µM)
How it was run: as §1

[2] = compound: CN1C=C(C2=CC=CC=C21)/C=C\3/C4=C(C=CC=N4)NC3=O + CCNC(=O)c1noc(-c2cc(C(C)C)c(O)cc2O)c1-c1ccc(CN2CCOCC2)cc1 [Luminespib] (partner 0.01 µM)
How it was run: as §1

Trametinib + Tozasertib = compound: CC(=O)Nc1cccc(-n2c(=O)n(C3CC3)c(=O)c3c(Nc4ccc(I)cc4F)n(C)c(=O)c(C)c32)c1 [Trametinib] + Cc1cc(Nc2cc(N3CCN(C)CC3)nc(Sc3ccc(NC(=O)C4CC4)cc3)n2)n[nH]1 [Tozasertib] (partner 0.1 µM)
How it was run: as §1

| Cell Line | relative viability (Trametinib + Olaparib; first compound 0.0025 µM) | relative viability (Trametinib + Olaparib; first compound 0.007906 µM) | relative viability (Trametinib + Olaparib; first compound 0.025 µM) | relative viability (Trametinib + Olaparib; first compound 0.07906 µM) | relative viability (Trametinib + Olaparib; first compound 0.25 µM) | relative viability ([1]; first compound 0.02 µM) | relative viability ([1]; first compound 0.06325 µM) | relative viability ([1]; first compound 0.2 µM) | relative viability ([1]; first compound 0.6325 µM) | relative viability ([1]; first compound 2 µM) | relative viability ([2]; first compound 0.02 µM) | relative viability ([2]; first compound 0.06325 µM) | relative viability ([2]; first compound 0.2 µM) | relative viability ([2]; first compound 0.6325 µM) | relative viability ([2]; first compound 2 µM) | relative viability (Trametinib + Tozasertib; first compound 0.0025 µM) | relative viability (Trametinib + Tozasertib; first compound 0.007906 µM) | relative viability (Trametinib + Tozasertib; first compound 0.025 µM) | relative viability (Trametinib + Tozasertib; first compound 0.07906 µM) | relative viability (Trametinib + Tozasertib; first compound 0.25 µM) |
| --- | --- | --- | --- | --- | --- | --- | --- | --- | --- | --- | --- | --- | --- | --- | --- | --- | --- | --- | --- | --- |
| NCI-H1651 | 0.197 | 0.178 | 0.182 | 0.179 | 0.161 | 0.522 | 0.534 | 0.353 | 0.464 | 0.345 | 0.953 | 0.772 | 1.02 | 1.13 | 1.02 | 0.666 | 0.555 | 0.541 | 0.526 | 0.498 |
| EBC-1 | 0.745 | 0.681 | 0.543 | 0.179 | 0.195 |  |  |  |  |  |  |  |  |  |  |  |  |  |  |  |
| COR-L 105 | 0.738 | 0.76 | 0.498 | 0.466 | 0.417 | 0.306 | 0.298 | 0.273 | 0.34 | 0.367 | 0.634 | 0.616 | 0.625 | 0.804 | 0.85 | 0.287 | 0.387 | 0.338 | 0.31 | 0.223 |
| RERF-LC-KJ | 0.926 | 0.81 | 0.919 | 0.907 | 0.648 | 0.898 | 0.878 | 0.737 | 0.68 | 0.679 | 1.21 | 1.14 | 1.22 | 1.24 | 1.37 | 0.493 | 0.545 | 0.539 | 0.509 | 0.387 |
| NCI-H1793 | 0.529 | 0.461 | 0.361 | 0.29 | 0.211 | 0.429 | 0.341 | 0.337 | 0.353 | 0.381 | 0.228 | 0.202 | 0.204 | 0.186 | 0.189 | 0.281 | 0.226 | 0.253 | 0.164 | 0.205 |
| CAL-12T | 0.692 | 0.555 | 0.522 | 0.511 | 0.487 | 0.501 | 0.302 | 0.347 | 0.285 | 0.273 | 0.22 | 0.561 | 0.48 | 0.432 | 0.381 | 0.275 | 0.273 | 0.196 | 0.199 | 0.202 |
| NCI-H1993 | 0.961 | 0.834 | 0.789 | 0.542 | 0.537 | 0.537 | 0.59 | 0.523 | 0.468 | 0.951 | 0.828 | 0.686 | 0.813 | 0.67 | 0.369 | 0.539 | 0.498 | 0.568 | 0.558 | 0.459 |
| LXF-289 | 1.01 | 0.906 | 0.803 | 0.756 | 0.665 | 0.203 | 0.197 | 0.184 | 0.2 | 0.202 | 0.668 | 0.662 | 0.741 | 0.69 | 0.785 | 0.198 | 0.174 | 0.208 | 0.181 | 0.143 |
| NCI-H1792 | 0.479 | 0.415 | 0.348 | 0.186 | 0.244 | 0.816 | 0.93 | 0.74 |  | 0.66 | 0.447 | 0.447 |  | 0.413 | 0.643 |  |  |  |  |  |
| LU99A | 0.292 | 0.277 | 0.261 | 0.263 | 0.247 | 0.67 | 0.457 | 0.437 | 0.669 | 0.612 | 0.265 | 0.255 | 0.275 | 0.355 | 0.28 | 0.234 | 0.272 | 0.232 | 0.244 | 0.232 |
| SW 1573 | 0.414 | 0.456 | 0.407 | 0.342 | 0.223 | 0.348 | 0.537 | 0.488 | 0.633 | 0.516 | 0.235 | 0.279 | 0.327 | 0.181 | 0.243 | 0.179 | 0.147 | 0.191 | 0.129 | 0.143 |
| COR-L23 | 0.422 | 0.473 | 0.43 | 0.392 | 0.261 | 0.551 | 0.449 | 0.494 | 0.51 | 0.529 | 0.623 | 0.632 | 0.702 | 0.699 | 0.789 | 0.193 | 0.208 | 0.165 | 0.178 | 0.149 |
| NCI-H1755 | 0.849 | 0.826 | 0.804 | 0.807 | 0.742 | 0.365 | 0.411 | 0.37 | 0.402 | 0.351 | 0.376 | 0.369 | 0.541 | 0.37 | 0.387 | 0.544 | 0.537 | 0.604 | 0.63 | 0.545 |
| LOU-NH91 | 0.893 | 0.829 | 0.849 | 0.809 | 0.483 | 0.58 | 0.501 | 0.464 | 0.516 | 0.466 | 0.335 | 0.302 | 0.352 | 0.307 | 0.266 | 0.639 | 0.609 | 0.592 | 0.548 | 0.399 |
| A549 | 0.29 | 0.27 | 0.14 | 0.211 | 0.0478 |  |  |  |  |  |  |  |  |  |  |  |  |  |  |  |
| NCI-H1648 | 0.828 | 0.671 | 0.88 | 0.653 | 0.555 |  |  |  |  |  |  |  |  |  |  |  | 0.611 | 0.515 | 0.4 | 0.352 |
| NCI-H1563 |  |  |  |  |  | 0.472 | 0.437 | 0.444 | 0.488 | 0.414 | 0.506 | 0.537 | 0.541 | 0.483 | 0.464 |  |  |  |  |  |
| NCI-H1623 |  |  |  |  |  | 0.469 | 0.625 | 0.49 | 0.457 | 0.505 | 0.422 | 0.473 | 0.428 | 0.446 | 0.289 | 0.355 | 0.364 | 0.299 | 0.256 | 0.314 |
| NCI-H1299 | 1.04 | 1 | 0.942 | 0.832 | 0.587 |  |  |  |  |  |  |  |  |  |  |  |  |  |  |  |
| HCC-366 | 0.294 | 0.293 | 0.206 | 0.145 | 0.0982 | 0.641 | 0.455 | 0.44 | 0.593 | 0.468 |  |  |  |  |  | 0.117 | 0.0857 | 0.0884 | 0.07 | 0.0695 |
| Calu-6 | 0.589 | 0.452 | 0.214 | 0.142 | 0.129 |  |  |  |  |  |  |  |  |  |  |  |  |  |  |  |

From the supplement of paper PMC10307832
